Measured values: PubChem BioAssay AID248 (DTP/NCI, 2004)
Values joined by “and” are separate entries in the source; they are usually repeats but may differ in a detail not shown here. Identical values can stand only once. Inconclusive results and toxic doses are left out. Rule as the data show it: active = T/C of 150% or more; inactive = T/C below 125%.

System: L1210 leukemia ip in BDF1 mice, survival T/C
Assay: NCI In Vivo Anticancer Drug Screen. Data for tumor model L1210 Leukemia (intraperitoneal) in B6D2F1 (BDF1) mice
Conditions: endpoint: mean survival time, higher = longer survival
Protocol: The antitumor activity of compounds was measured in mice bearing transplantable tumors. Survival or tumor size were measured and the results are expressed as the measurement made in the treated group (T) divided by the measurement made in the vehicle treated control group (C). The tumor model used in this assay is L1210 Leukemia (intraperitoneal) in B6D2F1 (BDF1) mice

[1] = dose: 100.0 mg/kg/injection, schedule: Q04DX003 (ip), vehicle: saline with Tween-80
[2] = dose: 200.0 mg/kg/injection, schedule: Q04DX003 (ip), vehicle: saline with Tween-80
[3] = dose: 100.0 mg/kg/injection, schedule: Q01DX009 (ip), vehicle: Klucel (hydroxypropylcellulose) (HPC)
[4] = dose: 100.0 mg/kg/injection, schedule: Q04DX003 (ip), vehicle: Klucel (hydroxypropylcellulose) (HPC)
[5] = dose: 200.0 mg/kg/injection, schedule: Q01DX009 (ip), vehicle: Klucel (hydroxypropylcellulose) (HPC)
[6] = dose: 200.0 mg/kg/injection, schedule: Q04DX003 (ip), vehicle: Klucel (hydroxypropylcellulose) (HPC)
[7] = dose: 400.0 mg/kg/injection, schedule: Q01DX009 (ip), vehicle: Klucel (hydroxypropylcellulose) (HPC)
[8] = dose: 400.0 mg/kg/injection, schedule: Q04DX003 (ip), vehicle: Klucel (hydroxypropylcellulose) (HPC)
[9] = dose: 100.0 mg/kg/injection, schedule: Q04DX002 (ip), vehicle: Klucel (hydroxypropylcellulose) (HPC)
[10] = dose: 200.0 mg/kg/injection, schedule: Q04DX002 (ip), vehicle: Klucel (hydroxypropylcellulose) (HPC)
[11] = dose: 400.0 mg/kg/injection, schedule: Q04DX002 (ip), vehicle: Klucel (hydroxypropylcellulose) (HPC)

Measured: T/C

COc1ccc(C(C)=O)cc1
inactive: dose: 100.0 mg/kg/injection, schedule: Q04DX002 (ip), vehicle: saline + alcohol 92 % of control | dose: 200.0 mg/kg/injection, schedule: Q04DX002 (ip), vehicle: saline + alcohol 96 % of control | dose: 400.0 mg/kg/injection, schedule: Q04DX002 (ip), vehicle: saline + alcohol 92 % of control

C=CCOc1ccccc1C(C)=O
inactive: [1] 97 % of control | [2] 97 % of control | dose: 400.0 mg/kg/injection, schedule: Q04DX003 (ip), vehicle: saline with Tween-80 89 % of control

CCCCCCCCCCCCCCCCCC(=O)N/N=C/c1ccccc1
inactive: dose: 100.0 mg/kg/injection, schedule: Q01DX009 (ip), vehicle: other 91 % of control | dose: 200.0 mg/kg/injection, schedule: Q01DX009 (ip), vehicle: other 89 % of control | dose: 400.0 mg/kg/injection, schedule: Q01DX009 (ip), vehicle: other 105 % of control

NC(CCO)C(=O)O (stereo not given)
inactive: dose: 50.0 mg/kg/injection, schedule: Q04DX002 (ip), vehicle: saline 96 % of control | dose: 100.0 mg/kg/injection, schedule: Q04DX002 (ip), vehicle: saline 96 % of control | dose: 200.0 mg/kg/injection, schedule: Q04DX002 (ip), vehicle: saline 100 % of control

O=[N+]([O-])c1ccc2c(N=Nc3ccc4ccccc4c3O)c(O)cc(S(=O)(=O)O)c2c1
inactive: dose: 50.0 mg/kg/injection, schedule: Q04DX003 (ip), vehicle: carboxymethylcellulose (CMC) 94 % of control | dose: 100.0 mg/kg/injection, schedule: Q04DX003 (ip), vehicle: carboxymethylcellulose (CMC) 93 % of control | dose: 200.0 mg/kg/injection, schedule: Q04DX003 (ip), vehicle: carboxymethylcellulose (CMC) 102 % of control

CN(CC#N)/N=N/c1nc[nH]c1C(N)=O
inactive: dose: 50.0 mg/kg/injection, schedule: Q01DX Z (ip), vehicle: carboxymethylcellulose (CMC) 118 % of control | dose: 75.0 mg/kg/injection, schedule: Q01DX Z (ip), vehicle: carboxymethylcellulose (CMC) 107 % of control

O=[N+]([O-])c1ccc(/C=C/c2ccccc2)cc1
inactive: [3] 97 % of control | [4] 109 % of control | [5] 95 % of control | [6] 98 % of control | [7] 96 % of control | [8] 105 % of control

CC1CCCC1C(=Nc1ccc(Cl)c(Cl)c1)N1CCCCC1 (stereo not given)
inactive: dose: 100.0 mg/kg/injection, schedule: Q01DX001 (ip), vehicle: saline 105 % of control | dose: 200.0 mg/kg/injection, schedule: Q01DX001 (ip), vehicle: saline 100 % of control | dose: 400.0 mg/kg/injection, schedule: Q01DX001 (ip), vehicle: saline 102 % of control

COC(=O)C(=O)CC(=O)c1ccc(OC)cc1
inactive: [9] 103 % of control | [10] 95 % of control | [11] 100 % of control

O=C1CN(CCN2CC(=O)N(Cc3ccccc3)C2=S)C(=S)N1Cc1ccccc1
inactive: [9] 88 % of control | [10] 88 % of control | [11] 92 % of control

COc1ccc2c(c1)-c1c(O)c(OC)cc3c1C(C2)N(C)CC3 (stereo not given)
inactive: dose: 75.0 mg/kg/injection, schedule: Q01DX001 (ip), vehicle: saline 94 % of control | dose: 150.0 mg/kg/injection, schedule: Q01DX001 (ip), vehicle: saline 98 % of control | dose: 300.0 mg/kg/injection, schedule: Q01DX001 (ip), vehicle: saline 100 % of control

CN(C)c1ccc(C(=O)c2ccccc2)cc1
inactive: dose: 50.0 mg/kg/injection, schedule: Q01DX009 (ip), vehicle: Klucel (hydroxypropylcellulose) (HPC) 101 % of control | [3] 108 % of control | [4] 100 % of control | [5] 95 % of control | [6] 105 % of control | [7] 102 % of control | [8] 100 % of control

CCOC(=O)C(=O)Nc1cc(C)ccc1C
inactive: [1] 93 % of control | [2] 95 % of control

CN=C(NC)c1cccc(NC(=O)Nc2ccc(NC(=O)Nc3cccc(C(=NC)NC)c3)cc2)c1
inactive: dose: 2.3 mg/kg/injection, schedule: Q01DX Z (ip), vehicle: carboxymethylcellulose (CMC) 93 % of control | dose: 3.5 mg/kg/injection, schedule: Q01DX Z (ip), vehicle: carboxymethylcellulose (CMC) 97 % of control | dose: 5.3 mg/kg/injection, schedule: Q01DX Z (ip), vehicle: carboxymethylcellulose (CMC) 95 % of control | dose: 5.5 mg/kg/injection, schedule: Q01DX Z (ip), vehicle: carboxymethylcellulose (CMC) 96 % of control | dose: 8.0 mg/kg/injection, schedule: Q01DX Z (ip), vehicle: carboxymethylcellulose (CMC) 97 % of control | dose: 8.3 mg/kg/injection, schedule: Q01DX Z (ip), vehicle: carboxymethylcellulose (CMC) 98 % of control | dose: 12.5 mg/kg/injection, schedule: Q01DX Z (ip), vehicle: carboxymethylcellulose (CMC) 101 % of control | dose: 18.75 mg/kg/injection, schedule: Q01DX Z (ip), vehicle: carboxymethylcellulose (CMC) 115 % of control

O=C(O)c1ccsc1C(=O)c1ccccc1
inactive: dose: 100.0 mg/kg/injection, schedule: Q01DX001 (ip), vehicle: saline with Tween-80 105 % of control | dose: 200.0 mg/kg/injection, schedule: Q01DX001 (ip), vehicle: saline with Tween-80 102 % of control | dose: 400.0 mg/kg/injection, schedule: Q01DX001 (ip), vehicle: saline with Tween-80 97 % of control

Oc1ccccc1SSc1ccccc1O
inactive: dose: 50.0 mg/kg/injection, schedule: Q01DX009 (ip), vehicle: saline with Tween-80 100 % of control | dose: 100.0 mg/kg/injection, schedule: Q01DX009 (ip), vehicle: saline with Tween-80 104 % of control | dose: 200.0 mg/kg/injection, schedule: Q01DX009 (ip), vehicle: saline with Tween-80 103 % of control

N=Nc1c(O)[nH]c2ccccc12
inactive: [9] 92 % of control | [10] 96 % of control | [11] 92 % of control

O=C(Nc1cccc(C2=NCCN2)c1)c1cc(C(=O)Nc2cccc(C3=NCCN3)c2)cc(C(=O)Nc2cccc(C3=NCCN3)c2)c1
inactive: dose: 1.9 mg/kg/injection, schedule: Q01DX Z (ip), vehicle: carboxymethylcellulose (CMC) 97 % of control | dose: 2.8 mg/kg/injection, schedule: Q01DX Z (ip), vehicle: carboxymethylcellulose (CMC) 101 % of control | dose: 4.3 mg/kg/injection, schedule: Q01DX Z (ip), vehicle: carboxymethylcellulose (CMC) 97 % of control | dose: 6.5 mg/kg/injection, schedule: Q01DX Z (ip), vehicle: carboxymethylcellulose (CMC) 97 % of control and 103 % of control | dose: 9.7 mg/kg/injection, schedule: Q01DX Z (ip), vehicle: carboxymethylcellulose (CMC) 100 % of control | dose: 14.6 mg/kg/injection, schedule: Q01DX Z (ip), vehicle: carboxymethylcellulose (CMC) 96 % of control | dose: 22.0 mg/kg/injection, schedule: Q01DX Z (ip), vehicle: carboxymethylcellulose (CMC) 97 % of control | dose: 22.0 mg/kg/injection, schedule: Q01DX Z (ip), vehicle: saline 98 % of control | dose: 33.0 mg/kg/injection, schedule: Q01DX Z (ip), vehicle: saline 100 % of control

Cc1cccc(C2NC(=O)c3ccccc3N2)c1 (stereo not given)
inactive: [4] 91 % of control | [6] 112 % of control | [8] 91 % of control

O=[N+]([O-])c1cccc(NCn2c(=S)[nH]c3ccccc32)c1
inactive: [3] 102 % of control | [5] 106 % of control
